The subject of the experiment is 922993-354-T-J3-PDC complex spheroid viability. Description: Anticancer human tumor 922993-354-T-J3-PDC patient-derived endometrial carcinoma cell line growth inhibition [POLQ]. To be noted: for viability, T/C: stronger effect = lower value. The protocol: Multicellular complex tumor spheroid response to Polymerase (POL) inhibitors (novobiocin, ART-558, RP6685) in combination with a variety of drugs and investigational agents in selected tumor cell lines
The POL inhibitors (novobiocin, ART-558, and RP6685) were evaluated both individually and in combination with standard of care and investigational anticancer small molecules within a complex spheroid model of solid tumors. . Complex spheroids include a stromal component modeled by human endothelial cells (HUVEC) and fibroblasts modeled by human mesenchymal stem cells (MSCs). The concentration ranges selected for each drug and investigational agent were based upon clinically achievable concentrations if the clinical Cmax of the agent was known.
Compounds. The drugs and investigational agents: novobiocin (NSC847541), ART-558 (NSC835418), RP-6685 (NSC848927), peposertib (NSC802822), ceralasertib (NSC780249), elimusertib (NSC800525), camonsertib (NSC841442), AZD-1390 (NSC803789), olaparib (NSC753686), talazoparib (NSC767125), rucaparib (NSC756644), sotorasib (NSC818433), MRTX-1133 (NSC836407), SN-38 (NSC673596), topotecan (NSC609699), epotoside (NSC141540), doxorubicin (NSC123127), gemcitabine (NSC613327), 5-fluorouracil (NSC19893), paclitaxel (NSC125973), vemurafenib (NSC761431), MSA-2 (NSC828583), SN-011 (NSC837082), adavosertib (NSC754352), prexasertib (NSC758257), carboplatin (NSC241240) and oxaliplatin (NSC266046), were obtained from the National Cancer Institute (NCI) Developmental Therapeutics Program Chemical Repository (21). The FDA-approved anticancer drug set is available from the Developmental Therapeutics Program at https://dtp.cancer.gov/organization/dscb/obtaining/. […] The stock solutions were prepared in dimethyl sulfoxide (DMSO, Sigma-Aldrich, St. Louis, MO, cat. D2650), except for the platinum compounds which were prepared in saline (Quality Biological, Gaithersburg, MD, cat. 114-055-101), at 800-fold the tested concentration and stored at -70 degrees C prior to their use. All drugs and investigational agents were tested over a range starting from a high concentration at or near the clinical Cmax and decreasing in half-log increments. If the clinical Cmax for an agent had not been determined, the highest concentration tested was 10 microM, except for SN-38, which was tested at a high concentration of 1 microM.
Cell Culture. All cells were maintained in an incubator at 37 degrees C and 5% CO2 with 95% humidity. The PDC lines were cultured according to standard operating procedures established by the NCI PDMR (https://pdmr.cancer.gov). Table 3 of the manuscript, lists the cell lines along with the number of the three cell types plated to form the mct-spheroids and media for tumor cell growth. After thawing, all PDC lines, except 997537-175-T-J1-PDC and 415267-285-R-J2-PDC, were cultured in Matrigel-coated flasks prepared with a working solution of 1X Ham's F-12 nutrient mix, without supplementation (Thermo Fisher Scientific, cat. 11765054), 100 U/mL penicillin-streptomycin (Thermo Fisher Scientific, cat. 15140122), and 2.5% Matrigel (Corning Inc., Corning, NY, cat. 354248) for the first three passages. The two PDC lines 997537-175-T-J1-PDC and 415267-285-R-J2-PDC were cultured on uncoated flasks. The 857933-349-R-J2-PDC line was cultured in 6C/Colon 1B media containing advanced DMEM/F-12 (Thermo Fisher Scientific, cat. 12634028), 10 mM HEPES (Thermo Fisher Scientific, cat. 15630080), 1X GlutaMAX supplement (Thermo Fisher Scientific, cat. 35050061), 0.1 mg/mL primocin (InvivoGen, San Diego, CA, cat. ant-pm-2), 10% defined fetal bovine serum, heat inactivated (HyClone Laboratories Inc., Logan, UT, cat. SH30070.03HI), 50% L-WRN conditioned media (ATCC, cat. CRL-3276), 1.25 mM N-Acetyl-L-cysteine (Sigma-Aldrich, cat. A9165), 10 mM nicotinamide (Sigma-Aldrich, cat. N0636), 1X B-27 supplement (Thermo Fisher Scientific, cat. 17504044), 1X N-2 supplement (Thermo Fisher Scientific, cat. […]

pIC50: −log10 of the molar value. Values joined by “and” are separate entries in the source; they are usually repeats but may differ in a detail not shown here. Identical values can stand only once.
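Note: spheroids exposed to the agents for one week.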
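Throughout, for viability, T/C: 100% = DMSO vehicle control wells.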

For `C=CCn1c(=O)c2cnc(Nc3ccc(N4CCN(C)CC4)cc3)nc2n1-c1cccc(C(C)(C)O)n1`, the viability, T/C by setting is: (compound 0.00316 µM) 99% and 101% and 104%; (compound 0.01 µM) 102% and 97.2% and 98.6%; (compound 0.0316 µM) 88.2% and 102% and 105%; (compound 0.1 µM) 98.6% and 105% and 101%; (compound 0.316 µM) 106% and 104% and 103%; (compound 1 µM) 86.5% and 104% and 96%. For the same compound, the pIC50 (curve of compound) is under 6.00.

Turning to `CC(=O)O[C@H]1C(=O)[C@@]2(C)[C@H]([C@H](OC(=O)c3ccccc3)[C@]3(O)C[C@H](OC(=O)[C@H](O)[C@@H](NC(=O)c4ccccc4)c4ccccc4)C(C)=C1C3(C)C)[C@]1(OC(C)=O)CO[C@@H]1C[C@@H]2O`, the viability, T/C runs as follows: (compound 0.00949 µM) 105% and 103% and 101%; (compound 0.03 µM) 99% and 101% and 96.3%; (compound 0.0949 µM) 99.6% and 106% and 95.9%; (compound 0.3 µM) 105% (2×) and 108%; (compound 0.949 µM) 101% and 95.8% and 89.9%; (compound 3 µM) 74.1% and 74.5% and 52%. Besides, the pIC50 (curve of compound) is under 5.52.

Consider `CC1COCCN1c1cc(-c2ccnn2C)c2ccnc(-c3ccn[nH]3)c2n1` (stereo not given), for which the viability, T/C runs as follows: (compound 0.0316 µM) 102% and 89.6% and 107%; (compound 0.1 µM) 66.9% and 60.1% and 93.3%; (compound 0.316 µM) 23.1% and 29.1% and 69.8%; (compound 1 µM) 11.8% and 12.8% and 36.8%; (compound 3.16 µM) 9.13% and 7.87% and 19.7%; (compound 10 µM) 10.8% and 9.87% and 13.7%. The pIC50 (curve of compound) was 6.81 and 6.84 and 6.20.

With `CC1COCCN1c1cc(C2(S(C)(=N)=O)CC2)nc(-c2ccnc3[nH]ccc23)n1` (stereo not given), the viability, T/C is, setting by setting: (compound 0.0316 µM) 98.8% and 101% and 94%; (compound 0.1 µM) 94.9% and 100% and 90.1%; (compound 0.316 µM) 91.1% and 101% (2×); (compound 1 µM) 97% and 102% and 99.8%; (compound 3.16 µM) 93.2% and 104% and 78.1%; (compound 10 µM) 46.8% and 92.4% and 45%. Besides, the pIC50 (curve of compound) was 5.03 and < 5.00 and 5.08.

For the compound `CCCS(=O)(=O)Nc1ccc(F)c(C(=O)c2c[nH]c3ncc(-c4ccc(Cl)cc4)cc23)c1F`, the viability, T/C is 101% and 107% and 102% (compound 0.0316 µM); 102% and 103% and 98.4% (compound 0.1 µM); 105% and 106% and 94.1% (compound 0.316 µM); 104% and 107% and 109% (compound 1 µM); 97.1% and 103% and 105% (compound 3.16 µM); 98.9% and 92.4% and 69.4% (compound 10 µM). For the setting “curve of compound”, the pIC50 is under 5.00.

Consider `CC[C@@]1(O)C(=O)OCc2c1cc1n(c2=O)Cc2cc3c(CN(C)C)c(O)ccc3nc2-1`, for which the viability, T/C (compound 0.000316 µM) is 92.2% and 105% and 98.3%; the viability, T/C (compound 0.001 µM) is 103% and 105% and 84%; the viability, T/C (compound 0.00316 µM) is 101% and 97.8% and 99.3%; the viability, T/C (compound 0.01 µM) is 98.3% and 98.7% and 106%; the viability, T/C (compound 0.0316 µM) was 86.9% and 98% and 91.8%; the viability, T/C (compound 0.1 µM) was 54.7% and 87.9% and 41.4%. Besides, the pIC50 (curve of compound) is < 7.00 and 7.08.

For `CCc1c2c(nc3ccc(O)cc13)-c1cc3c(c(=O)n1C2)COC(=O)[C@]3(O)CC`, the viability, T/C is, setting by setting: (compound 0.00316 µM) 78.9% and 100% and 95.3%; (compound 0.01 µM) 51.6% and 79.5% and 29.8%; (compound 0.0316 µM) 13% and 39.8% and 14.1%; (compound 0.1 µM) 12.4% and 20.3% and 11.5%; (compound 0.316 µM) 15.2% and 19.6% and 12.8%; (compound 1 µM) 16.6% and 28.6% and 14.5%. For the same compound, the pIC50 (curve of compound) was 7.98 and 7.64 and 8.15.

As for `CNCc1ccc(-c2[nH]c3cc(F)cc4c3c2CCNC4=O)cc1`, the viability, T/C by setting is: (compound 0.0316 µM) 94.6% and 105% and 109%; (compound 0.1 µM) 96.8% and 100% and 90.3%; (compound 0.316 µM) 93.7% and 96% and 96.1%; (compound 1 µM) 105% and 97.1% and 96%; (compound 3.16 µM) 85.2% and 99.3% and 90.9%; (compound 10 µM) 86.2% and 96.2% and 71.4%. In addition, under “curve of compound”, the pIC50 is under 5.00.

Turning to `COC1C(OC(N)=O)C(O)C(Oc2ccc3c(O)c(NC(=O)c4ccc(O)c(CC=C(C)C)c4)c(=O)oc3c2C)OC1(C)C` (stereo not given), the viability, T/C is 100% [middle of 13 runs] (compound 0.0316 µM); 102% [middle of 13 runs] (compound 0.1 µM); 98.2% [middle of 13 runs] (compound 0.316 µM); 101% [middle of 13 runs] (compound 1 µM); 97.6% [middle of 13 runs] (compound 3.16 µM); 93.8% [middle of 13 runs] (compound 10 µM). The pIC50 (compound alone, run of 10/31/2023) is under 5.00.

For `COc1cc(C2c3cc4c(cc3C(OC3OC5COC(C)OC5C(O)C3O)C3COC(=O)C23)OCO4)cc(OC)c1O` (stereo not given), the viability, T/C was 90.2% and 98.8% and 103% (compound 0.0316 µM); 95.9% and 102% and 93.7% (compound 0.1 µM); 85.3% and 104% and 92.5% (compound 0.316 µM); 97.9% and 104% and 97.5% (compound 1 µM); 84.4% and 99.5% and 83.6% (compound 3.16 µM); 42.3% and 81.9% and 37% (compound 10 µM). The pIC50 (curve of compound) is 5.09 and < 5.00 and 5.14.

What is called viability, T/C is the result in the treated group divided by that in the control group, in per cent. As a reminder, the pIC50 is the IC50 on a negative log10 scale, so that one unit is a factor of ten.

The record behind these values is PubChem BioAssay AID1963830 (Molecular Pharmacology Branch, DTP, NCI, 2024).
